Assay results reported in ChEMBL document CHEMBL1148675, “Protein microarrays to study carbohydrate-recognition events” (Bioorg Med Chem Lett, 2006).
Active and inactive are the calls of the source. The rule behind the calls is not given here.

What was measured:
Aleuria aurantia = experiment: Binding affinity to Aleuria Aurantia lectin by microarray at 0.5 uM
Homo sapiens [1] = species: Homo sapiens; experiment: Binding affinity to amylase by microarray at 0.5 uM
Insulin (Homo sapiens) = Insulin (Homo sapiens) (UniProt P01308); experiment: Binding affinity to insulin by microarray at 0.5 uM
Insulin (Homo sapiens), sequence (P01308 whole entry): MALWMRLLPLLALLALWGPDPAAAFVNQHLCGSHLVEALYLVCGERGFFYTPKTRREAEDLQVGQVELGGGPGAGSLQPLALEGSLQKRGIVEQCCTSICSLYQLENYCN

[2] = molecular target: Streptavidin (Streptomyces avidinii) (UniProt P22629); experiment: Binding affinity to streptavidin by microarray
Streptavidin (Streptomyces avidinii), sequence (P22629 whole entry): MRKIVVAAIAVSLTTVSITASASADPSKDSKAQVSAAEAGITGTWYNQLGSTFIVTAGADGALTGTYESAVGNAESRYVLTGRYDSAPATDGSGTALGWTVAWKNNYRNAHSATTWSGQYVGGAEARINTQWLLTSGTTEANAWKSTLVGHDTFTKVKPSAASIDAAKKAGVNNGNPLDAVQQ

[3] = molecular target: T1, Ovalbumin (Gallus gallus) (UniProt P01012); experiment: Binding affinity to ovalbumin by microarray at 0.5 uM
T1 sequence (whole entry): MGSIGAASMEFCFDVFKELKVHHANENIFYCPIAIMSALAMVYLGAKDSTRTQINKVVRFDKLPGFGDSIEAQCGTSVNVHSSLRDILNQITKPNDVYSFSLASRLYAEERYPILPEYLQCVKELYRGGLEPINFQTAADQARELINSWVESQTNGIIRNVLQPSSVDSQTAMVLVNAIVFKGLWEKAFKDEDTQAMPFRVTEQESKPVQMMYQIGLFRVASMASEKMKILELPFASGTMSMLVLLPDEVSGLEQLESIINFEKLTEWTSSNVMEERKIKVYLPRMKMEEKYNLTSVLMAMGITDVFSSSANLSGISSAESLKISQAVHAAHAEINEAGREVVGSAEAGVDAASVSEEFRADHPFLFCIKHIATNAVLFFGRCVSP

Ricinus communis = experiment: Binding affinity to Ricinus communis agglutinin 120 by microarray at 0.5 uM
Homo sapiens [4] = species: Homo sapiens; experiment: Binding affinity to alkaline phosphatase by microarray at 0.5 uM
Canavalia = experiment: Binding affinity to Concanavalin A by microarray at 0.5 uM
Sambucus nigra = experiment: Binding affinity to Sambucus nigra A lectin by microarray at 0.5 uM
Homo sapiens [5] = species: Homo sapiens; experiment: Binding affinity to myokinase by microarray at 0.5 uM
Homo sapiens [6] = species: Homo sapiens; experiment: Binding affinity to RNase A by microarray at 0.5 uM
Trypsin (Homo sapiens) = Trypsin (Homo sapiens) (UniProt P07477+P07478+P35030); experiment: Binding affinity to trypsin by microarray at 0.5 uM; format: protein assay
Homo sapiens [7] = species: Homo sapiens; experiment: Binding affinity to collagenase by microarray at 0.5 uM
Homo sapiens [8] = species: Homo sapiens; experiment: Binding affinity to hyaluronidase by microarray at 0.5 uM
Homo sapiens [9] = species: Homo sapiens; experiment: Binding affinity to pepsin by microarray at 0.5 uM
[10] = molecular target: Prothrombin (Homo sapiens) (UniProt P00734); experiment: Binding affinity to thrombin by microarray at 0.5 uM
Homo sapiens [11] = species: Homo sapiens; experiment: Binding affinity to GST by microarray at 0.5 uM
Triticum aestivum = experiment: Binding affinity to wheat germ agglutinin by microarray at 0.5 uM
[12] = molecular target: Antithrombin-III (Homo sapiens) (UniProt P01008); experiment: Binding affinity to antithrombin by microarray at 0.5 uM
Antithrombin-III (Homo sapiens), sequence (P01008 whole entry): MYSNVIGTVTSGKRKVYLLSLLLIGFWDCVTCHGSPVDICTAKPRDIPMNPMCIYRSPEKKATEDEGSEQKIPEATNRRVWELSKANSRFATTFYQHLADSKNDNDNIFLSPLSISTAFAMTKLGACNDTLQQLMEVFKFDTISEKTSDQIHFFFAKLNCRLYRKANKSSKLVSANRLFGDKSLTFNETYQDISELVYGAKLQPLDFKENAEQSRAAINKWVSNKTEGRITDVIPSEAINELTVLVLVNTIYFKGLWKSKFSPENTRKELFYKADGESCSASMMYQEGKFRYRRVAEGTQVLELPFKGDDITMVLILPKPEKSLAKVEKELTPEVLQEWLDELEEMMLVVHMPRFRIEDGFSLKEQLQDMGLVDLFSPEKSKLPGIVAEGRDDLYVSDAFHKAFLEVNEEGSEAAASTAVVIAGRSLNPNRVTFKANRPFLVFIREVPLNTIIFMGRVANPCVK

[13] = Inhibition of trivalent GlcNAc binding to wheat germ agglutinin with irradiation by microarray; set-up: species or system Triticum aestivum
[14] = Inhibition of trivalent GlcNAc binding to wheat germ agglutinin without irradiation by microarray; set-up: species or system Triticum aestivum

| SMILES | Activity (Aleuria aurantia) | Activity (Homo sapiens [1]) | Activity (Insulin (Homo sapiens)) | Activity [2] | Activity [3] | Activity (Homo sapiens [4]) | Activity (Canavalia) | Activity (Sambucus nigra) | Activity (Homo sapiens [5]) | Activity (Homo sapiens [6]) | Activity (Trypsin (Homo sapiens)) | Activity (Homo sapiens [7]) | Activity (Homo sapiens [8]) | Activity (Homo sapiens [9]) | Activity [10] | Activity (Homo sapiens [11]) | Activity (Triticum aestivum) | Activity [12] | also measured |
| --- | --- | --- | --- | --- | --- | --- | --- | --- | --- | --- | --- | --- | --- | --- | --- | --- | --- | --- | --- |
| CC(=O)N[C@H]1[C@@H](OCCNC(=O)CCC(=O)NCCCC[C@H](NC(=O)CCC(=O)NCCO[C@H]2O[C@H](CO)[C@@H](O[C@@H]3O[C@H](CO)[C@H](O)[C@H](O)[C@H]3O)[C@H](O)[C@H]2NC(C)=O)C(=O)N[C@@H](CCCCNC(=O)[C@H](COCc2ccc(C(=O)c3ccccc3)cc2)NC(=O)CCC(=O)NCCO[C@H]2O[C@H](CO)[C@@H](O[C@@H]3O[C@H](CO)[C@H](O)[C@H](O)[C@H]3O)[C@H](O)[C@H]2NC(C)=O)C(=O)NCCCOCCOCCOCCCNC(=O)CCC(=O)NCCOCCOCCNC(=O)CCCCN2CCC(C)(C)/C2=C\C=C\C2=[N+](C)c3ccccc3C2(C)C)O[C@H](CO)[C@@H](O[C@@H]2O[C@H](CO)[C@H](O)[C@H](O)[C@H]2O)[C@@H]1O | inactive | inactive | inactive | inactive | inactive | inactive | inactive | inactive | inactive | inactive | inactive | inactive | inactive | inactive | inactive | inactive | Active | inactive | Activity (Ricinus communis): Active |
| C[C@H]1O[C@H](OCCNC(=O)CCC(=O)NCCCC[C@H](NC(=O)CCC(=O)NCCO[C@H]2O[C@H](C)[C@H](O)[C@H](O)[C@H]2O)C(=O)N[C@@H](CCCCNC(=O)[C@H](COCc2ccc(C(=O)c3ccccc3)cc2)NC(=O)CCC(=O)NCCO[C@H]2O[C@H](C)[C@H](O)[C@H](O)[C@H]2O)C(=O)NCCCOCCOCCOCCCNC(=O)CCC(=O)NCCOCCOCCNC(=O)CCCCN2CCC(C)(C)/C2=C\C=C\C2=[N+](C)c3ccccc3C2(C)C)[C@H](O)[C@@H](O)[C@H]1O | Active | inactive | inactive | inactive | inactive | inactive | inactive | inactive | inactive | inactive | inactive | inactive | inactive | inactive | inactive | inactive | inactive | inactive | – |
| CC(=O)N[C@H]1[C@H](OCCNC(=O)CCC(=O)NCCCC[C@H](NC(=O)CCC(=O)NCCO[C@@H]2O[C@H](CO)[C@@H](O)[C@H](O)[C@H]2NC(C)=O)C(=O)N[C@@H](CCCCNC(=O)[C@H](COCc2ccc(C(=O)c3ccccc3)cc2)NC(=O)CCC(=O)NCCO[C@@H]2O[C@H](CO)[C@@H](O)[C@H](O)[C@H]2NC(C)=O)C(=O)NCCCOCCOCCOCCCNC(=O)CCC(=O)NCCOCCOCCNC(=O)CCCCN2CCC(C)(C)/C2=C\C=C\C2=[N+](C)c3ccccc3C2(C)C)O[C@H](CO)[C@@H](O)[C@@H]1O | inactive | inactive | inactive | inactive | inactive | inactive | inactive | inactive | inactive | inactive | inactive | inactive | inactive | inactive | inactive | inactive | Active | inactive | IC50 [13]: 17 mM; IC50 [14]: 7.9 mM |
